The record followed here is PubChem BioAssay (NCI).

Where “and” joins values, the source holds several entries; their conditions need not be identical. Equal values may be shown once.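 Tested at 5 concentrations; 48 h exposure; 96-well plates; endpoints linearly interpolated, else capped at highest concentration. The concentration for 50% growth inhibition is given as GI50. TGI: concentration producing complete growth inhibition.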

Among the test systems are A498 renal; HOP-62 NSCLC; IGROV1 ovarian; LOX IMVI melanoma; NCI-H23 lung; OVCAR-5 ovarian; SK-MEL-5 melanoma; SR leukemia; TK-10 renal; NCI/ADR-RES ovarian.
Holding throughout (assay): NCI tumour cell line growth inhibition, 48 h

With `CCCCCCCCCCCCCCCC(=O)OCCOCCOCCOCCOCCOC(=O)CCCCCCCCCCCCCCC`, the TGI in the assay on A498 renal, in the assay on HOP-62 NSCLC, in the assay on IGROV1 ovarian, in the assay on LOX IMVI melanoma, in the assay on NCI-H23 lung and in the assay on OVCAR-5 ovarian was over 100 µM in each case. Moreover, the TGI in the assay with SK-MEL-5 melanoma, with SR leukemia and in the assay on TK-10 renal was over 100 µM each time.
For `O=C(N=c1nc(NC(=O)c2ccccc2)ss1)c1ccccc1`, the TGI is 87.6 µM with A498 renal; over 100 µM in the assay on HOP-62 NSCLC; over 100 µM with IGROV1 ovarian; over 100 µM with LOX IMVI melanoma; 92.5 µM in the assay on NCI-H23 lung; over 100 µM with OVCAR-5 ovarian. The TGI in the assay on SK-MEL-5 melanoma was 34.7 µM; in the assay with SR leukemia, 75.4 µM; in the assay with TK-10 renal, over 100 µM.
On to `O=C(CC1C(=O)Nc2ccccc2S1(=O)=O)Nc1ccc(Cl)cc1` (stereo unspecified), for which the TGI was over 100 µM with A498 renal; 37.7 µM in the assay with IGROV1 ovarian; 41.8 µM in the assay on LOX IMVI melanoma; over 100 µM in the assay on NCI-H23 lung; over 100 µM in the assay on OVCAR-5 ovarian; 59.1 µM in the assay on SK-MEL-5 melanoma. Moreover, the TGI was found to be 30.1 µM in the assay on SR leukemia and 54.5 µM in the assay on TK-10 renal.
Turning to `OC1CCCC2CCC[N-]C12.OC1CCCC2CCC[N-]C12.[O]=[V][OH]` (stereo unspecified), the GI50 is 11.6 µM in the assay on A498 renal; 7150 nM with HOP-62 NSCLC; 2370 nM with IGROV1 ovarian; 6.09 µM in the assay with LOX IMVI melanoma; 7.22 µM in the assay on NCI-H23 lung; 2820 nM in the assay on NCI/ADR-RES ovarian. In addition, the GI50 in the assay with OVCAR-5 ovarian is 9990 nM; in the assay on SK-MEL-5 melanoma, 5.57 µM; in the assay with TK-10 renal it was 44900 nM. In addition, the TGI with A498 renal was 97.5 µM; in the assay with HOP-62 NSCLC it was over 100 µM; with IGROV1 ovarian it was 12.2 µM; in the assay on LOX IMVI melanoma, 33.6 µM; in the assay with NCI-H23 lung, 52.6 µM; in the assay on NCI/ADR-RES ovarian, 15.1 µM. The TGI in the assay with OVCAR-5 ovarian is over 100 µM; in the assay with SK-MEL-5 melanoma it was 46.2 µM; in the assay on TK-10 renal, over 100 µM.
In the case of `CCCCOc1ccc(/C=N/Nc2cc(C)nc3ccc(Br)cc23)cc1`, the GI50 in the assay with A498 renal was 1.48 µM; in the assay on HOP-62 NSCLC, 1470 nM; in the assay with IGROV1 ovarian it was 1910 nM; in the assay on LOX IMVI melanoma, 1.77 µM; with NCI-H23 lung, 1.86 µM; with NCI/ADR-RES ovarian, 1960 nM. Also, the GI50 with OVCAR-5 ovarian is 1860 nM; with SK-MEL-5 melanoma, 1.68 µM; in the assay on TK-10 renal it was 1910 nM. The TGI in the assay on A498 renal is 2.85 µM; in the assay with HOP-62 NSCLC, 2.94 µM; in the assay on IGROV1 ovarian it was 3.59 µM; in the assay with LOX IMVI melanoma, 3.24 µM; with NCI-H23 lung, 3.76 µM; in the assay on NCI/ADR-RES ovarian it was 3.85 µM. Besides, the values for the TGI in the assay with OVCAR-5 ovarian, in the assay on SK-MEL-5 melanoma and in the assay on TK-10 renal were 3.25 µM, 3.05 µM and 3.31 µM, respectively.
For the compound `COc1ccc(-c2cn(-c3ccc(OC)c(OC)c3)c(=O)[nH]2)cc1`, the GI50 in the assay with A498 renal was over 100 µM; in the assay with HOP-62 NSCLC, over 100000 nM; with IGROV1 ovarian, over 100000 nM; with LOX IMVI melanoma, over 100 µM; in the assay with NCI-H23 lung, over 100 µM; in the assay with NCI/ADR-RES ovarian, 85800 nM. Also, the values for the GI50 with OVCAR-5 ovarian, in the assay with SK-MEL-5 melanoma and in the assay with TK-10 renal were over 100000 nM, 63.3 µM and over 100000 nM, respectively. Moreover, the TGI in the assay with A498 renal, in the assay on HOP-62 NSCLC, with IGROV1 ovarian, with LOX IMVI melanoma, in the assay with NCI-H23 lung and with NCI/ADR-RES ovarian was over 100 µM throughout. For the same compound, the TGI with OVCAR-5 ovarian, in the assay on SK-MEL-5 melanoma and in the assay on TK-10 renal was over 100 µM in each case.
For `C#CC1(O)C(COP(=O)(O)OCC2OC(n3cc(F)c(=O)[nH]c3=O)CC2O)OC(n2ccc(N)nc2=O)C1O` (stereo unspecified), the GI50 with A498 renal is under 0.0134 µM; in the assay with HOP-62 NSCLC, under 32.8 nM; in the assay on IGROV1 ovarian, 39.8 nM; in the assay on LOX IMVI melanoma, under 0.01 µM; with NCI-H23 lung, under 0.0139 µM; in the assay with NCI/ADR-RES ovarian it was under 11.5 nM. The GI50 in the assay with OVCAR-5 ovarian was 309 nM; with SK-MEL-5 melanoma, under 0.01 µM; in the assay with TK-10 renal, 10 nM. For the same compound, the TGI was 0.199 µM in the assay on A498 renal; 1.28 µM in the assay on HOP-62 NSCLC; over 100 µM with IGROV1 ovarian; 0.449 µM in the assay with NCI-H23 lung; 16 µM in the assay on NCI/ADR-RES ovarian; over 59.1 µM with OVCAR-5 ovarian. Moreover, in the assay with SK-MEL-5 melanoma, the TGI is 0.0412 µM.
For the compound `COc1ccc2c(c1)/C(=C\c1c(-c3cc(OC)ccc3OC)nc3sccn13)C(=O)N2`, the GI50 is 1750 nM with HOP-62 NSCLC; 697 nM with IGROV1 ovarian; 5.22 µM in the assay on LOX IMVI melanoma; 1.47 µM with NCI-H23 lung; 4830 nM and 1700 nM in the assay on NCI/ADR-RES ovarian; 6650 nM and 1730 nM in the assay with OVCAR-5 ovarian. In the assay with TK-10 renal, the GI50 was 1760 nM. Moreover, the TGI stood at 3.29 µM in the assay on HOP-62 NSCLC; 2.73 µM with IGROV1 ovarian; 21.5 µM in the assay on LOX IMVI melanoma; 2.83 µM in the assay on NCI-H23 lung; 3.39 µM in the assay on NCI/ADR-RES ovarian; 3.1 µM in the assay with OVCAR-5 ovarian. This compound also returned a TGI in the assay on TK-10 renal of 3.14 µM.
Turning to `NS(=O)(=O)c1ccc(NC(=O)C2C(=O)C(=O)N(c3ccc(S(N)(=O)=O)cc3)C2=O)cc1` (stereo unspecified), the TGI in the assay on A498 renal, in the assay with HOP-62 NSCLC, with IGROV1 ovarian, in the assay on LOX IMVI melanoma, with NCI-H23 lung and with OVCAR-5 ovarian was over 100 µM throughout. Further, the TGI with SK-MEL-5 melanoma, in the assay on SR leukemia and in the assay on TK-10 renal was over 100 µM each time.
For the compound `COc1cc2c3c(n(CCCNCCCNCCN)c(=O)c2cc1OC)-c1cc2c(cc1C3=O)OCO2`, the GI50 is over 100 µM in the assay with A498 renal; 32300 nM with IGROV1 ovarian; 13.1 µM in the assay on LOX IMVI melanoma; 24.7 µM in the assay with NCI-H23 lung; 35.7 µM in the assay on SK-MEL-5 melanoma; 9.86 µM in the assay on SR leukemia. In the assay on TK-10 renal, the GI50 is 53700 nM. Moreover, the TGI is over 100 µM in the assay with A498 renal; over 100 µM in the assay on IGROV1 ovarian; 36.4 µM in the assay on LOX IMVI melanoma; 78.7 µM with NCI-H23 lung; over 100 µM with SK-MEL-5 melanoma; 43.9 µM in the assay on SR leukemia. In the assay with TK-10 renal, the TGI was over 100 µM.
As to `CC1C=CC(C(N)C(=O)O)O1` (stereo unspecified), the TGI in the assay with A498 renal, in the assay on HOP-62 NSCLC, with IGROV1 ovarian, in the assay with LOX IMVI melanoma, in the assay with NCI-H23 lung and in the assay on OVCAR-5 ovarian was over 100 µM in each case. The TGI in the assay with SK-MEL-5 melanoma and in the assay with SR leukemia was over 100 µM in each case.
